Assay results published in patent US11045435B2, “Methods for treating ocular diseases” (NATUREWISE BIOTECH & MEDICALS CORPORATION, priority 2016, dated 2021).

Legend:
GFAP = GFAP levels in retina, Western Blot, streptozotocin-induced diabetic retinopathy; assay type: in vivo, Sprague-Dawley female rats
Experimental: After a 16-hour fasting, Sprague-Dawley female rats weighing 200-220 g received a single 60 mg/kg intraperitoneal injection of Streptozotocin (STZ; Sigma-Aldrich, St. Louis, Md.) in 10 mM sodium citrate buffer (pH 4.5; Sigma-Aldrich, St. Louis, Md.). Control rats were fasted and received the buffer solution alone. Rats with blood glucose levels higher than 375 mg/dL 7 days after receiving STZ were considered to be diabetic. Diabetic rats were treated with 1% COMPOUND I, 0.5% COMPOUND I or vehicle eye drops 3 time a day for 6 weeks.
After rats were sacrificed as described in last section, eyes were enucleated and bisected. Retinas were peeled from eyecups and immediately homogenized with 0.3 ml ice-cold lysis buffer ([…]; Sigma-Aldrich, St. Louis, Mo.), including 1 μl proteinase inhibitor cocktail ([…]; Sigma-Aldrich, St. Louis, Mo.). The insoluble material was removed by centrifugation at 12,000 g for 20 minutes. Final protein concentrations were determined using a protein assay kit (BCA, Santa Cruz Biotechnology, Santa Cruz, Calif.) according to manufacturer's specifications. The homogenate (80 μg) were separated by NuPAGE Bis-Tris Mini Gels (Invitrogen Life Technologies, Grand Island, N.Y.) and transferred to nitrocellulose membranes by iBlot Gel transfer Device (Invitrogen Life Technologies, Grand Island, N.Y.). The nitrocellulose membranes were treated by BenchPro 4100 Card Processing Station (Invitrogen Life Technologies, Grand Island, N.Y.) according to the instruction of WesternBreeze® Chromogenic Kit-Anti-Rabbit (Invitrogen Life Technologies, Grand Island, N.Y.). The primary antibodies used were anti-GFAP (1:200, Santa Cruz Biotechnology, Santa Cruz, Calif.) and glycealdehyde-3-phosphate dehydrogenase (GAPDH) (1:100), respectively. The Anti-rabbit IgG, AP-linked antibody was used as a second antibody. For quantitative evaluation of the western blot studies, the nitrocellulose membranes were scanned and the optical densities were quantified with analysis software (Pro-gel Analyzer software, Media Cybernetics, Rockville, Md.).

mouse model of CNV = experiment: Laser-induced CNV mouse model (FP, FFA, OCT); assay type: in vivo, C57BL/6J mice
Experimental: Male C57BL/6J mice (BioLASCO Taiwan Co.) were maintained within the Animal Center at Taipei Medical University (TMU) and the CNV study was performed in accordance with ARVO statement and the experimental protocols were approved by the Institutional Animal Care and Use Committee of TMU (LAC-2017-0130). To create CNV, mice were anesthetized by injection of Balanzine (10% xylazine) (10 mg/kg) and Ketamine (80 mg/kg). The rupture of Bruch's membrane-choroid was achieved by laser photocoagulation (Micron III system, Phoenix Research Laboratories, Pleasanton, Calif.) using CNV laser burns of four spots (0.1-second duration, 250 mW) approximately two disc-diameters away from the optic disc. […]
The OCT module of the Micron III (Phoenix Research Laboratories, Pleasanton, Calif.) retinal imaging microscope was used to obtain images from retinal layers. […] Three retinal layers were defined and measured in the C57BL/6 mice included in this study: the inner layer, which comprises the retinal nerve fiber layer (RNFL), the ganglion cell layer (GCL), and the inner plexiform layer (IPL); the middle layer, which comprises the inner nuclear layer (INL), the outer plexiform layer (OPL), the outer nuclear layer (ONL), and the outer limiting membrane (OLM); and the outer layer, which comprises the inner and outer segments (IS/OS) of the photoreceptors and the retinal pigment epithelium.

**Q.** How did the “GFAP level (Western Blot), DR animals as 100%” value (GFAP; 0.5% eye drops tid 6 weeks) turn out when COc1ccc(COc2c(/C=C/C(=O)NO)ccc(OC)c2CC=C(C)C)cc1 [COMPOUND I] was run?
**A.** Its value is 70%.

**Q.** What about the “expression of GFAP proteins in retina vs diabetic control, in words” value (GFAP; 1% and 0.5% tid. for 6 weeks) of the same compound?
**A.** The value was “significantly suppressed”.

**Q.** And the “GFAP level (Western Blot), DR rats as 100%” value (GFAP; 1.0% eye drops tid 6 weeks)?
**A.** The value was 46%.

**Q.** What about the “leaky area (FFA)” value (mouse model of CNV; 25 mg/kg/d oral for 7 or 28 days) of the same compound?
**A.** Its value is “significantly reduced”.

**Q.** What about the “tissue hyperplasia resulted from laser damage” value (mouse model of CNV; 25 mg/kg/d oral, day 7 and day 28) of the same compound?
**A.** The value was “ameliorated”.
